Reference: patent publication US9862679B2, “Potent and selective inhibitors of monoamine transporters; method of making; and use thereof” (priority 2013, dated 2018)
Several values for one entry are separate records, joined by “and”; a condition that tells them apart may be missing. Equal entries are not always repeated. Where two headings read alike, the source gives them in different places.

Key:
[1] = molecular target: dopamine transporter (DAT) (Rattus norvegicus (Rat), UniProt P23977); assay: Dopamine Transporter Binding Assay ([3H]WIN 35428, rat striatal membranes)
Chain of dopamine transporter (DAT) (P23977 whole entry): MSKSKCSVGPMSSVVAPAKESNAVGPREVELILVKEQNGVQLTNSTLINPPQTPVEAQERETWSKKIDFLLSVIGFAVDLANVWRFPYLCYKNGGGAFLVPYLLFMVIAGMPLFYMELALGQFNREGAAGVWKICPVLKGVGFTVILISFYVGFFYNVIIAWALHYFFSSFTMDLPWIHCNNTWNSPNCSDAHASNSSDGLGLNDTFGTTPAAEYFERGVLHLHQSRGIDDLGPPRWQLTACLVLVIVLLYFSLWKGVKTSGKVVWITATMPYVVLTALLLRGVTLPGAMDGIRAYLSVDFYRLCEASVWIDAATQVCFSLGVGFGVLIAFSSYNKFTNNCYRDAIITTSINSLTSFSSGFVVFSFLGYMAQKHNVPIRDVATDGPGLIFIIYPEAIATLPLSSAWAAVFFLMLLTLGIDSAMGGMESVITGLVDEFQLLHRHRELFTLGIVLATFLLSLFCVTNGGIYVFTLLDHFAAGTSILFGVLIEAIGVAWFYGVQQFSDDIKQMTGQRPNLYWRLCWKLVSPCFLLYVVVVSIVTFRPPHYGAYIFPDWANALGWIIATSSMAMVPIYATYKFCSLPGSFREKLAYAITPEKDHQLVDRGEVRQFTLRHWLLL

[2] = molecular target: norepinephrine transporter (NET) (Rattus norvegicus, UniProt Q63380); conditions: rat brain membranes
Chain of norepinephrine transporter (NET) (Q63380 1-617): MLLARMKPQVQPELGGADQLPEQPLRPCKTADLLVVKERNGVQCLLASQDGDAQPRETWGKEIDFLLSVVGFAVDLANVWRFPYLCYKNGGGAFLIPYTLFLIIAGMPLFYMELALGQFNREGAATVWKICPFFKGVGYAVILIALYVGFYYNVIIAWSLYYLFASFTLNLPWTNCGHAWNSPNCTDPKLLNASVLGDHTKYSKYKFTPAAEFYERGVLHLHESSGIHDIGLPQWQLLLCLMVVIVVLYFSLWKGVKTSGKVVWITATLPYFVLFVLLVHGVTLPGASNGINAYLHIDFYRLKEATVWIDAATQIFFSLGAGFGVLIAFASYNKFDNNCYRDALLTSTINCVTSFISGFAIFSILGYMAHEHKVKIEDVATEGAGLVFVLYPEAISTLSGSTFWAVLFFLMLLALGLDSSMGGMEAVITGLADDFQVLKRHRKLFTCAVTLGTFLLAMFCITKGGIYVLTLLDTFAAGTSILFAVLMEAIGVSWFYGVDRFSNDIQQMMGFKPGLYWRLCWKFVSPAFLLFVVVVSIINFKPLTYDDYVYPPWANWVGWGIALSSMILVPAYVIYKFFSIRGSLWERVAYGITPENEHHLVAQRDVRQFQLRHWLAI
Description: Binding affinities of all compounds were evaluated at the DAT, SERT, and NET in rat brain membranes using previously described methods:
Norepinephrine Transporter Binding Assay. Brains from male Sprague-Dawley rats weighing 200-225 g (Taconic Labs, Germantown, N.Y.) were removed, frontal cortex dissected and rapidly frozen. Membranes were prepared by homogenizing tissues in 20 volumes (w/v) of 50 mM Tris containing 120 mM NaCl and 5 mM KCl, (pH 7.4 at 25° C.), using a Brinkman Polytron and centrifuged at 50,000×g for 10 min at 4° C. The resulting pellet was resuspended in buffer, recentrifuged and resuspended in buffer to a concentration of 80 mg/mL. Ligand binding experiments were conducted in assay tubes containing 0.5 mL buffer for 60 min at 0-4° C. […] Nonspecific binding was determined using 1 mM desipramine. Incubations were terminated by rapid filtration through Whatman GF/B filters, presoaked in 0.05% polyethylenimine, using a Brandel R48 filtering manifold (Brandel Instruments Gaithersburg, Md.). The filters were washed twice with 3 mL cold buffer and transferred to scintillation vials. Beckman Ready Value (3.0 mL) was added and the vials were counted using a Beckman 6000 liquid scintillation counter (Beckman Coulter Instruments, Fullerton, Calif.). […] All compounds were tested as racemic mixtures.

Sigma 1 = Sigma 1 (Homo sapiens (Human), UniProt Q99720); assay: Sigma 1 binding affinity (Table 5)
Chain of Sigma 1 (Q99720 whole entry): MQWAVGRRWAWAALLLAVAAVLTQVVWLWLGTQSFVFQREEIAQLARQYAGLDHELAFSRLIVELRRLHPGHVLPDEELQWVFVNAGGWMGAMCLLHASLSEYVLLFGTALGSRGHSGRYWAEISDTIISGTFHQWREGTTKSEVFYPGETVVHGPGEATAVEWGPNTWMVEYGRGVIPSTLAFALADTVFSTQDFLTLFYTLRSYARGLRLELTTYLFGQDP

Sigma 2 = Sigma 2 (Homo sapiens (Human), UniProt Q5BJF2); assay: Sigma 2 binding affinity (Table 5)
Chain of Sigma 2 (Q5BJF2 whole entry): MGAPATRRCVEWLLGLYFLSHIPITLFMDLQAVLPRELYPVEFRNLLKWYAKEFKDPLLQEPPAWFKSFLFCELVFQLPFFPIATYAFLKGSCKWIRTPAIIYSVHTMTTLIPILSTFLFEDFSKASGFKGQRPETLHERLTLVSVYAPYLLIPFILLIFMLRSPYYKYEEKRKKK

[3] = molecular target: T1, serotonin transporter (SERT) (Rattus norvegicus (Rat), UniProt P31652); conditions: for Ki: rat brain membranes
T1 sequence (P31652 whole entry): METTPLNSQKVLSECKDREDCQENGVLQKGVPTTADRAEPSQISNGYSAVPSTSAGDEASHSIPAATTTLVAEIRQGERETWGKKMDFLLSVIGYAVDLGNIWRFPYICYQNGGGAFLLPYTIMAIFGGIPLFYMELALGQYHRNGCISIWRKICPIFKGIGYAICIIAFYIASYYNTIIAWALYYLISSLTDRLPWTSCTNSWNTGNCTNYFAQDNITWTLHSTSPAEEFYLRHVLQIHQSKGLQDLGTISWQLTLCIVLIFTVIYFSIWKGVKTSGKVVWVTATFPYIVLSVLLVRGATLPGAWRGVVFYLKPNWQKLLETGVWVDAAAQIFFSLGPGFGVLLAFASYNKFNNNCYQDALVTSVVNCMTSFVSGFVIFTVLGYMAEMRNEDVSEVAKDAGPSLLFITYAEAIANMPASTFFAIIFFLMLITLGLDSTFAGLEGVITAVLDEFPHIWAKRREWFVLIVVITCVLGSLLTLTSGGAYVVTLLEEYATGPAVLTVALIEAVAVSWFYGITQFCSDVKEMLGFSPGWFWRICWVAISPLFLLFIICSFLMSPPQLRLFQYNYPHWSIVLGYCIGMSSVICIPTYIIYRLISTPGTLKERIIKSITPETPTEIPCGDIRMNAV
Description: (§1) Brains from male Sprague-Dawley rats weighing 200-225 g (Taconic Labs, Germantown, N.Y.) were removed, midbrain dissected and rapidly frozen. […] Nonspecific binding was determined using 10 mM fluoxetine. […] The filters were washed twice with 3 mL cold buffer and transferred to scintillation vials. Beckman Ready Value (3.0 mL) was added and the vials were counted the next day using a Beckman 6000 liquid scintillation counter (Beckman Coulter Instruments, Fullerton, Calif.). […] Data were analyzed with GraphPad Prism software (San Diego, Calif.).

[4] = Phase II (glucuronidation, UDPGA) metabolic stability in mouse liver microsomes; type: in vitro ADME
Description: Phase I and phase II metabolic stability assay for was conducted in mouse liver microsomes. For phase I metabolism, the reaction was carried out with 100 mM potassium phosphate buffer, pH 7.4, in the presence of NADPH regenerating system (1.3 mM NADPH, 3.3 mM glucose 6-phosphate, 3.3 mM MgCl2, 0.4 U/mL glucose-6-phosphate dehydrogenase, 50 μM sodium citrate). Reactions in duplicate were initiated by addition of the liver microsomes to the incubation mixture (compound final concentration was 10 μM; 0.5 mg/mL microsomes). For phase II glucuronidation reaction compound was added to TRIS-HCl buffer (50 mM, pH 7.5) with microsomes (0.5 mg/mL), along with MgCl2 (8 mM), and alamethicin (25 μg/mL) and pre-incubated at 37° C. The reaction was initiated (in duplicate) with UDPGA at a final concentration of 2 mM. Negative controls in the absence NADPH and UDPGA were carried for both phase I and phase II metabolism respectively, to determine the specific cofactor free degradation. […] At predetermined times (0, 15, 30 and 60 min) aliquots of the mixture were removed and the reaction quenched by addition of two times the volume of ice cold acetonitrile spiked with the internal standard. Compound disappearance was monitored over time using a liquid chromatography and tandem mass spectrometry (LC/MS/MS) method.
Compounds were separated on an Agilent 1290 UPLC system with a c18 column using a gradient run of 55:45-5:95 water:acetonitrile over 3.2 minutes and detected on an Agilent 6520 QTOF mass spectrometer.

[5] = molecular target: T1, serotonin transporter (SERT); assay: biochemical
Description: as §1

[6] = Metabolic stability in mouse plasma; type: in vitro ADME; conditions: mouse plasma, 10 μM, 0 min
Description: The metabolic stability was evaluated using mouse plasma and mouse liver microsomes.

[7] = rat brain membranes, Table 5 piperazinyl derivatives, read-out: DAT Ki ± SEM
[8] = read-out: NET Ki ± SEM, Table 5 piperazinyl derivatives
[9] = read-out: SERT Ki ± SEM, Table 5 piperazinyl derivatives
[10] = Table 5 piperazinyl derivatives, read-out: Sigma 1 Ki ± SEM
[11] = Table 5 piperazinyl derivatives, read-out: Sigma 2 Ki ± SEM
[12] = read-out: NET Ki, Table 5, bound in M
[13] = rat brain membranes, Table 1 thioacetamides and sulfinylacetamides, read-out: Ki (nM) ± S.E.M. DAT
[14] = read-out: Ki (nM) ± S.E.M. NET, Table 1 thioacetamides and sulfinylacetamides
[15] = read-out: Ki (nM) ± S.E.M. SERT, Table 2 thioethanamines and sulfinylethanamines

With `CC(O)CN1CCN(CCSC(c2ccccc2)c2ccccc2)CC1` (racemic) [Compound 9a, 1-(4-(2-(Benzhydrylthio)ethyl)piperazin-1-yl)propan-2-ol] the Ki [1, 7] was 49.6 ± 4.31 nM, the Ki [2, 8] was 44500 ± 2400 nM and the Ki (Sigma 1) was 0.94 ± 0.07 nM. The Ki (Sigma 2) was 92.6 ± 13.5 nM and the Ki [3, 9] was 26700 ± 2630 nM.
In the case of `CC(O)CN1CCN(CCSC(c2ccc(F)cc2)c2ccc(F)cc2)CC1` (racemic) [Compound 9d, 1-(4-(2-((Bis(4-fluorophenyl)methyl)thio)ethyl)piperazin-1-yl)propan-2-ol], the Ki (Sigma 1; [10]) is reported as 4.03 ± 0.22 nM, the Ki (Sigma 2; [11]) is reported as 84.7 ± 11.9 nM and the Ki [3, 9] is reported as 1770 ± 234 nM.
Compound `OC(Cc1ccccc1)CN1CCN(CCSC(c2ccccc2)c2ccccc2)CC1` (racemic) [Compound 9g, 1-(4-(2-(Benzhydrylthio)ethyl)piperazin-1-yl)-3-phenylpropan-2-ol] has a Ki [1, 7] of 2.54 ± 0.23 nM, a Ki [2, 8] of 1430 ± 118 nM and a Ki (Sigma 1; [10]) of 30 ± 3.81 nM. It also gave a Ki (Sigma 2; [11]) of 31.8 ± 3.63 nM.
In the case of `OC(Cc1ccccc1)CN1CCN(CCSC(c2ccc(F)cc2)c2ccc(F)cc2)CC1` (racemic) [Compound 9j, 1-(4-(2-((Bis(4-fluorophenyl)methyl)thio)ethyl)piperazin-1-yl)-3-phenylpropan-2-ol], the Ki [2, 8] is reported as 1950 ± 227 nM, the Ki (Sigma 1) is reported as 95.4 ± 13.4 nM and the Ki (Sigma 2) is reported as 38.6 ± 0.94 nM. It also gave a Ki [3, 9] of 213 nM.
With `CC(O)CN1CCN(CC[S+]([O-])C(c2ccccc2)c2ccccc2)CC1` (racemic) [Compound 10a, 1-(4-(2-(Benzhydrylsulfinyl)ethyl)piperazin-1-yl)propan-2-ol] the Ki ([1]; read-out: DAT Ki ± SEM) was 636 ± 14.7 nM, the Ki [2, 12] was over 100000 nM and the Ki (Sigma 1; [10]) was 861 ± 109 nM. For the same compound, the Ki (Sigma 2; [11]) was 3930 ± 208 nM and the Ki ([3]; read-out: SERT Ki, Table 5, bound in M) was over 100000 nM.
In the case of `CC(O)CN1CCN(CC[S+]([O-])C(c2ccc(F)cc2)c2ccc(F)cc2)CC1` (racemic) [Compound 10d, 1-(4-(2-((Bis(4-fluorophenyl)methyl)sulfinyl)ethyl)piperazin-1-yl)propan-2-ol], the Ki [2, 12] is reported as over 100000 nM, the Ki (Sigma 1; [10]) is reported as 1010 ± 134 nM and the Ki (Sigma 2; [11]) is reported as 1800 ± 264 nM. For the same compound, the Ki [3, 9] was 50300 ± 5760 nM.
In the case of `[O-][S+](CCN1CCN(CC(O)Cc2ccccc2)CC1)C(c1ccccc1)c1ccccc1` (racemic) [Compound 10g, 1-(4-(2-(Benzhydrylsulfinyl)ethyl)piperazin-1-yl)-3-phenylpropan-2-ol], the Ki [1, 7] is reported as 3.43 ± 0.5 nM, the Ki [2, 8] is reported as 25300 ± 2040 nM and the Ki (Sigma 1; [10]) is reported as 983 ± 103 nM. It also gave a Ki (Sigma 2; [11]) of 316 ± 25.2 nM and a Ki [3, 9] of 21700 ± 2020 nM.
`[O-][S+](CCN1CCN(CC(O)Cc2ccccc2)CC1)C(c1ccc(F)cc1)c1ccc(F)cc1` (racemic) [Compound 10j, 1-(4-(2-((Bis(4-fluorophenyl)methyl)sulfinyl)ethyl)piperazin-1-yl)-3-phenylpropan-2-ol] gave a Ki [1, 7] of 2.53 ± 0.25 nM, a Ki (Sigma 1) of 336 ± 42.2 nM and a Ki (Sigma 2; [11]) of 176 ± 26.3 nM. It also gave a Ki [3, 9] of 4610 ± 562 nM.
In the case of `Cc1cc(=O)oc2cc(O)ccc12` [4 Methyl Umbelliferone, 4-methylumbelliferone, reference compound], the “Metabolic stability, Phase II (% remaining)” value ([4]; 0 min) is reported as 100% and the “Metabolic stability, Phase II (% remaining)” value ([4]; 60 min) is reported as 3.10%.
`O=C(CSC(c1ccccc1)c1ccccc1)NCC1CC1` [Compound 2o, 2-(Benzhydrylthio)-N-(cyclopropylmethyl)acetamide] gave a Ki [1, 13] of 13900 nM, a Ki [2, 14] of over 100000 nM and a Ki [5] of 20900 nM.
With `O=C(CSC(c1ccc(F)cc1)c1ccc(F)cc1)NCC1CC1` [Compound 2p, 2-((Bis(4-fluorophenyl)methyl)thio)-N-(cyclopropylmethyl)acetamide] the Ki [1, 13] was 6860 nM, the Ki [2, 14] was 57600 nM and the Ki [5] was 35400 nM.
Compound `O=C(CSC(c1ccc(Br)cc1)c1ccc(Br)cc1)NCC1CC1` [Compound 2q, 2-((Bis(4-bromophenyl)methyl)thio)-N-(cyclopropylmethyl)acetamide] has a Ki [1, 13] of 993 ± 139 nM, a Ki [2, 14] of over 100000 nM and a Ki [5] of 7270 nM.
`Cc1ccc(C(c2ccc(C)cc2)[S+]([O-])CC(N)=O)cc1` (stereo not drawn) [Compound 3a, 2-((Di-p-tolylmethyl)sulfinyl)acetamide] gave a Ki [1, 13] of 12700 nM, a Ki [2, 14] of over 100000 nM and a Ki [5] of over 100000 nM.
With `NC(=O)C[S+]([O-])C(c1cccc(F)c1)c1cccc(F)c1` (stereo not drawn) [Compound 3c, 2-((Bis(3-fluorophenyl)methyl)sulfinyl)acetamide] the Ki [1, 13] was 6180 nM, the Ki [2, 14] was over 100000 nM and the Ki [5] was over 100000 nM.
`NC(=O)C[S+]([O-])C(c1cccc(Cl)c1)c1cccc(Cl)c1` (stereo not drawn) [Compound 3d, 2-((Bis(3-chlorophenyl)methyl)sulfinyl)acetamide] gave a Ki [2, 14] of over 100000 nM and a Ki [5] of over 100000 nM.
For `NC(=O)C[S+]([O-])C(c1ccccc1)c1cccc(Br)c1` (stereo not drawn) [Compound 3e, 2-(((3-Bromophenyl)(phenyl)methyl)sulfinyl)acetamide], the Ki [1, 13] was 550 ± 7.4 nM, the Ki [2, 14] was over 100000 nM and the Ki [5] was over 100000 nM.
In the case of `NCCSC(c1ccc(Cl)cc1)c1ccc(Cl)cc1` [Compound 4b, 2-((bis(4-chlorophenyl)methyl)thio)ethan-1-amine], the Ki [3, 15] is reported as 30 nM and 29.9 nM and the Ki [5] is reported as under 30 nM.
In the case of `NCCSC(c1ccc(Br)cc1)c1ccc(Br)cc1` [Compound 4c, 2-((bis(4-bromophenyl)methyl)thio)ethan-1-amine], the “improvement in DAT affinity, halogen-substituted v. unsubstituted analogue” value [1] is reported as 3 fold, the Ki ([1]; read-out: Ki (nM) ± S.E.M. DAT) is reported as 488 ± 52.2 nM and the “increase in SERT affinity, halogen-substituted v. unsubstituted analogue” value ([3]; 2i v. 2g (Table 1), 4c v. 4a (Table 2)) is reported as 9 fold. For the same compound, the Ki [3, 15] was 26 nM and 26.3 nM and the Ki [5] was under 30 nM.
With `c1ccc(CCCN2CCN(CCSC(c3ccccc3)c3ccccc3)CC2)cc1` [Compound 7a, 1-(2-(Benzhydrylthio)ethyl)-4-(3-phenylpropyl)piperazine] the Ki [1, 7] was 3.58 ± 0.16 nM, the Ki [2, 8] was 988 nM and the Ki (Sigma 1) was 19.9 ± 2.59 nM. The Ki (Sigma 2) was 16.8 ± 2.15 nM and the Ki [3, 9] was 1050 ± 152 nM.
Compound `Fc1ccc(C(SCCN2CCN(CCCc3ccccc3)CC2)c2ccc(F)cc2)cc1` [Compound 7b, 1-(2-((Bis(4-fluorophenyl)methyl)thio)ethyl)-4-(3-phenylpropyl)piperazine] has a Ki [1, 7] of 4.5 ± 0.34 nM, a Ki [2, 8] of 1890 ± 116 nM and a Ki (Sigma 1) of 59.5 ± 5.04 nM. For the same compound, the Ki (Sigma 2) was 28.5 ± 2.14 nM and the Ki [3, 9] was 285 nM.
`[O-][S+](CCN1CCN(CCCc2ccccc2)CC1)C(c1ccccc1)c1ccccc1` (stereo not drawn) [Compound 8a, 1-(2-(Benzhydrylsulfinyl)ethyl)-4-(3-phenylpropyl)piperazine] gave a Ki ([1]; read-out: DAT Ki ± SEM) of 3.17 ± 0.11 nM, a Ki [2, 8] of 5540 ± 808 nM and a Ki (Sigma 1) of 116 ± 1.24 nM. It also gave a Ki (Sigma 2) of 20.5 ± 0.43 nM and a Ki [3, 9] of 7220 ± 944 nM.
With `[O-][S+](CCN1CCN(CCCc2ccccc2)CC1)C(c1ccc(F)cc1)c1ccc(F)cc1` (stereo not drawn) [Compound 8b, 1-(2-((Bis(4-fluorophenyl)methyl)sulfinyl)ethyl)-4-(3-phenylpropyl)piperazine] the Ki ([1]; read-out: DAT Ki ± SEM) was 2.92 ± 0.38 nM, the Ki [2, 8] was 4280 ± 343 nM and the Ki (Sigma 1; [10]) was 42.4 ± 5.1 nM. It also gave a Ki (Sigma 2; [11]) of 25.9 ± 1.11 nM.
Compound `O=C(CSC(c1ccccc1)c1ccccc1)N1CCN(CCCc2ccccc2)CC1` [Compound 11a, 2-(Benzhydrylthio)-1-(4-(3-phenylpropyl)piperazin-1-yl)ethan-1-one] has a Ki [1, 7] of 47.2 ± 5.56 nM, a Ki (Sigma 1) of 1120 ± 20.3 nM and a Ki (Sigma 2) of 773 nM.
`O=C(C[S+]([O-])C(c1ccccc1)c1ccccc1)N1CCN(CCCc2ccccc2)CC1` (stereo not drawn) [Compound 12a, 2-(Benzhydrylsulfinyl)-1-(4-(3-phenylpropyl)piperazin-1-yl)ethan-1-one] gave a Ki [1, 7] of 33 ± 2.83 nM, a Ki (Sigma 1; [10]) of 1430 ± 21.1 nM and a Ki (Sigma 2; [11]) of 469 ± 66.4 nM. It also gave a Ki [3, 9] of 15200 ± 1100 nM.
With `CCN(CC)CCOC(=O)c1ccc(N)cc1` [Procaine, reference compound] the “Metabolic stability, Plasma (% remaining)” value [6] was 100%.
